Test results taken from the supplement of paper PMC10307832.

Legend:
Assay in all cases: relative viability (nuclei count vs DMSO), 5 days (fraction); higher = more cells survive
Entinostat + Vorinostat = compound: Nc1ccccc1NC(=O)c1ccc(CNC(=O)OCc2cccnc2)cc1 [Entinostat] + O=C(CCCCCCC(=O)Nc1ccccc1)NO [Vorinostat] (partner 1 µM)
In short: (§1)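 Five library-drug doses in √10 steps were combined with a fixed anchor-drug dose, or a single drug was given alone, by pin tool to lung cancer cell lines in 1536-well plates the day after seeding. Nuclei were stained and counted after 5 days. Relative viability is the nuclei count in treated wells over that in vehicle wells, taken as the median of duplicate plates.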

SGI-1776 + Tozasertib = compound: CN1CCC(CNc2ccc3ncc(-c4cccc(OC(F)(F)F)c4)n3n2)CC1 [SGI-1776] + Cc1cc(Nc2cc(N3CCN(C)CC3)nc(Sc3ccc(NC(=O)C4CC4)cc3)n2)n[nH]1 [Tozasertib] (partner 0.1 µM)
In short: as §1

[1] = compound: C1COCCN1C2=NC(=NC3=C2OC4=C3C=CC=N4)C5=CC(=CC=C5)NC(=O)C6=CN=C(C=C6)N + CC(C)C[C@H](NC(=O)[C@H](Cc1ccccc1)NC(=O)c1cnccn1)B(O)O [Bortezomib] (partner 0.002 µM)
In short: as §1

[2] = compound: C1COCCN1C2=NC(=NC3=C2OC4=C3C=CC=N4)C5=CC(=CC=C5)NC(=O)C6=CN=C(C=C6)N + COc1cc2c(Oc3ccc(NC(=O)C4(C(=O)Nc5ccc(F)cc5)CC4)cc3F)ccnc2cc1OCCCN1CCOCC1 [Foretinib] (partner 0.25 µM)
In short: as §1

| Cell Line | relative viability (Entinostat + Vorinostat; first compound 0.02 µM) | relative viability (Entinostat + Vorinostat; first compound 0.06325 µM) | relative viability (Entinostat + Vorinostat; first compound 0.2 µM) | relative viability (Entinostat + Vorinostat; first compound 0.6325 µM) | relative viability (Entinostat + Vorinostat; first compound 2 µM) | relative viability (SGI-1776 + Tozasertib; first compound 0.08 µM) | relative viability (SGI-1776 + Tozasertib; first compound 0.8 µM) | relative viability (SGI-1776 + Tozasertib; first compound 2.53 µM) | relative viability (SGI-1776 + Tozasertib; first compound 8 µM) | relative viability ([1]; first compound 0.02 µM) | relative viability ([1]; first compound 0.06325 µM) | relative viability ([1]; first compound 0.2 µM) | relative viability ([1]; first compound 0.6325 µM) | relative viability ([1]; first compound 2 µM) | relative viability ([2]; first compound 0.02 µM) | relative viability ([2]; first compound 0.06325 µM) | relative viability ([2]; first compound 0.2 µM) | relative viability ([2]; first compound 0.6325 µM) | relative viability ([2]; first compound 2 µM) |
| --- | --- | --- | --- | --- | --- | --- | --- | --- | --- | --- | --- | --- | --- | --- | --- | --- | --- | --- | --- |
| HCC-366 | 0.338 | 0.239 | 0.209 | 0.0651 | 0.0386 | 0.115 | 0.0741 | 0.0957 | 0.0418 | 1.43 | 1.23 | 1.09 | 1.11 | 0.525 | 0.946 | 0.931 | 0.913 | 0.892 | 0.714 |
| HCC-827 | 0.988 | 0.879 | 0.631 | 0.62 | 0.287 | 0.448 | 0.369 | 0.422 | 0.359 | 1.07 | 1.07 | 1.17 | 1.15 | 1.08 | 1.01 | 1.06 | 0.99 | 1.08 | 0.97 |
| HOP-62 | 0.565 | 0.534 | 0.494 | 0.228 | 0.132 | 0.397 | 0.323 | 0.241 | 0.251 | 0.743 | 0.848 | 0.897 | 0.967 | 0.291 | 1.12 | 1.2 | 1.12 | 1.02 | 0.568 |
| IA-LM | 0.972 | 0.997 | 1.13 | 0.863 | 0.682 |  |  |  |  |  | 0.78 | 0.537 | 0.645 | 0.39 | 0.999 | 1.38 | 0.867 | 0.922 | 0.326 |
| LC-2-ad | 0.666 | 0.686 | 0.695 | 0.356 | 0.257 | 0.451 | 0.309 | 0.336 | 0.261 | 1.09 | 1.05 | 0.998 | 1.03 | 0.898 | 0.858 | 0.984 | 0.977 | 1.06 | 0.9 |
| LCLC-97TM1 | 0.65 | 0.742 | 0.588 | 0.398 | 0.161 | 0.211 | 0.188 | 0.163 | 0.185 | 0.704 | 0.635 | 0.499 | 0.802 | 0.233 | 0.974 | 0.964 | 0.931 | 1.04 | 0.825 |
| LCLC-103H | 0.804 | 0.806 | 0.703 | 0.482 | 0.447 | 0.495 | 0.506 | 0.424 | 0.211 | 0.969 | 1.24 | 1 | 0.978 | 0.722 | 0.872 | 0.777 | 0.789 | 0.643 | 0.474 |
| LK-2 | 0.237 | 0.293 | 0.279 | 0.188 | 0.154 | 0.181 | 0.206 | 0.16 | 0.182 |  |  |  |  |  | 1.34 | 1.37 | 1.35 | 0.797 | 0.598 |
| NCI-H358 | 0.67 | 0.618 | 0.947 | 0.211 | 0.117 | 0.0986 | 0.0957 | 0.102 | 0.0836 |  |  |  |  |  |  | 0.721 | 0.537 | 0.68 | 0.477 |
| NCI-H522 | 0.794 | 0.944 | 0.863 | 0.741 | 0.428 | 0.654 | 0.557 | 0.502 | 0.523 |  |  |  |  |  |  |  |  |  |  |
| NCI-H1299 |  |  |  |  |  |  |  |  |  | 1.06 | 1.05 | 1.02 | 1.03 | 0.798 | 1.01 | 1.08 | 1.1 | 1.05 | 0.806 |
| NCI-H1395 | 1.05 | 0.96 | 0.829 | 0.65 | 0.463 | 0.83 | 0.817 | 0.644 | 0.39 |  |  |  |  |  | 0.919 | 0.909 | 0.924 | 0.984 | 0.894 |
| NCI-H1563 |  |  |  |  |  |  |  |  |  | 0.883 | 0.81 | 0.84 | 0.665 | 0.589 | 0.833 | 0.911 | 0.862 | 0.856 | 0.823 |
| NCI-H1623 |  |  |  |  |  | 0.436 | 0.425 | 0.39 | 0.45 |  |  |  |  |  | 0.791 | 0.801 | 0.954 | 0.822 | 0.648 |
| NCI-H1648 | 0.65 | 0.336 | 0.345 | 0.342 | 0.208 | 0.58 | 0.503 | 0.451 | 0.284 |  |  |  |  |  |  |  |  |  |  |
| NCI-H1703 |  |  |  |  |  |  |  |  |  | 0.229 | 0.278 | 0.249 | 0.267 | 0.236 | 0.284 | 0.413 | 0.371 | 0.305 | 0.285 |
| NCI-H1792 |  |  |  |  |  |  |  |  |  | 1.2 | 0.905 | 0.994 | 0.86 | 0.374 |  |  |  |  |  |
| NCI-H1793 | 0.78 | 0.854 | 0.801 | 0.439 | 0.29 | 0.335 | 0.248 | 0.252 | 0.22 |  |  |  |  |  | 0.564 | 0.843 | 0.59 | 0.548 | 0.391 |
| NCI-H1944 | 0.59 | 0.576 | 0.452 | 0.307 | 0.246 | 0.247 | 0.252 | 0.253 | 0.226 |  |  |  |  |  | 0.898 | 0.916 | 0.942 | 0.772 | 0.731 |
| NCI-H2170 | 0.803 | 0.72 | 0.683 | 0.476 | 0.265 | 0.708 | 0.692 | 0.452 | 0.181 |  |  |  |  |  | 0.953 | 0.843 | 1.05 | 1.07 | 0.68 |
| NCI-H2342 | 0.855 | 0.859 | 0.709 | 0.772 | 0.691 | 0.668 | 0.456 | 0.504 | 0.357 |  |  |  |  |  | 0.981 | 1.24 | 1.02 | 1.01 | 0.88 |
| SK-MES-1 | 1.02 | 1.03 | 1.26 | 0.954 | 0.743 | 0.964 | 0.35 | 0.154 | 0.133 |  |  |  |  |  | 0.934 | 1.17 | 0.929 | 0.792 | 0.662 |
| SW 900 | 0.634 | 0.485 | 0.476 | 0.376 | 0.264 | 0.693 | 0.608 | 0.467 | 0.222 |  |  |  |  |  | 0.944 | 0.93 | 0.751 | 1.5 | 0.735 |
